Results published in patent publication US20240165023A1, “LIQUID PHARMACEUTICAL COMPOSITION” (Verona Pharma PLC, priority 2022, published 2024).

How the values were obtained:
[1] = Plasma pharmacokinetics of ensifentrine after administration of the composition to healthy patients; assay type: in vivo; settings: human, inhaled
[2] = Plasma pharmacokinetics of ensifentrine in COPD patients, popPK model simulation from trial samples; assay type: in vivo, human
Protocol: Plasma concentrations of ensifentrine for the assessment of pharmacokinetic (PK) parameters were measured using validated bioanalytical methods for ensifentrine in human plasma with LLOQ of 5 pg/mL.
Samples were taken on the following schedule: • Week 6: 1.0 h (±0.5 h) and 2.5 h (±0.5 h) (even sites) or 1.5 h and 4 h (±1 h) (odd sites); • Week 12: pre-dose (−0.5 h), 4 to 6 h, and 8 to 12 h (even sites) or 0.5 h (±0.25 h), 3 h (±0.5 h), and 6 to 8 h (odd sites); • Week 24: pre-dose (−0.5 h) and 1.5 h (even sites) or pre-dose (−0.5 h) and 1 h (±0.5 h) (odd sites)
Based on the samples taken during the trial, PK data was modelled for COPD patients with normal renal function. The final popPK model was used to predict parameter estimates in a virtual population of 50000 subjects (per covariate condition) for simulation of ensifentrine PK following nebulization of 3 mg in a population reflecting the population in the trial with normal renal function or mild renal impairment, or with moderate renal impairment. Uncertainty in fixed effects and covariance matrix parameters as well as residual variability were included in the simulations. The parameter uncertainty was accounted for by random resampling (without replacement) of 500 sets of parameter estimates from the bootstrap (750 replicates) in R to create 500 NONMEM simulation control streams. From each set of parameter estimates, the PK profiles for 100 subjects (for each covariate condition) were simulated with IV and IOV from the covariance matrix and residual error in NONMEM. Individual subject concentrations were simulated using NONMEM version 7.4.3, and PK parameters were calculated using R version 3.4.0.

[3] = tested on: patients with moderate to severe COPD; test: Clinical study of nebulised ensifentrine 3 mg BID vs placebo, lung function (FEV1) in COPD; assay type: in vivo, human; settings: 3 mg BID by nebuliser
Protocol: A clinical study was conducted to determine the efficacy of ensifentrine in treating COPD compared with placebo. Ensifentrine was administered by nebuliser at a dose of 3 mg twice daily (BID) for 24 weeks. The study was a multi-centre, randomized, double-blind, parallel-group, placebo-controlled trial with around 800 patients and 5:3 randomization.
The study population included patients aged 40-80 years with moderate to severe COPD (FEV1 30%-70% p.n., FEV1/forced vital capacity (FVC) ratio <0.7, with mMRC 2). The randomization stratified (a) the use of stable background maintenance LAMA or LABA therapy use (approx. 50%. yes or no) and (b) cigarette smoking (current or former). Inhaled corticosteroid (ICS) maintenance therapy was permitted in up to 20% of patients under certain provisions.
The primary endpoint of the study was change from baseline in average FEV1 area under the curve (AUC)0-12 h post-dose at week 12. Secondary endpoints of the study included: peak FEV1 over 4 hours post-dose at Week 12; morning trough FEV1 at Week 12; and other endpoints including moderate/severe COPD exacerbations frequency over 24 Weeks.
Baseline FEV1 is the mean of the two measurements taken before study medication on the day of first dosing, i.e. <40 minutes and just prior to dosing, both pre-dose on day 1.
Average FEV1 AUC0-12 h is defined as area under the curve over 12 hours of the FEV1, divided by 12 hours.
The investigational product and placebo were provided in 2.5 mL unit dose format in an ampule and administered via a nebuliser. The formulation of the investigational product (ensifentrine suspension formulation comprising crystalline polymorph Form I of ensifentrine) and placebo are shown in Table 1 below.

[4] = human, plasma, inhaled, 3 mg, patients with COPD
[5] = nebulization of 3 mg, COPD patients with normal renal function, popPK simulation in virtual population

Cmax [1]: 0.852 ng/mL
AUC(0-inf) ([1]; read-out: mean AUC0-∞): 5.93 ng·h/mL
systemic exposure in COPD patients compared with healthy patients ([2]; COPD patients vs healthy patients): lower systemic exposure
AUC [2, 4]: 2.45 ng·h/mL
Cmax [2, 4]: 0.522 ng/mL
AUC0-tau, Median (90% prediction interval) [2, 5]: 2450 (882-7500) pg/mL * h
Cmax, Median (90% prediction interval) [2, 5]: 522 (173-1330) pg/mL
tmax, Median [2, 5]: 1.0 h
Structure (SMILES): COc1cc2c(cc1OC)-c1c/c(=N\c3c(C)cc(C)cc3C)n(CCNC(N)=O)c(=O)n1CC2 [Ensifentrine, N-(2-{(2E)-9,10-dimethoxy-4-oxo-2-[(2,4,6-trimethylphenyl)imino]-6,7-dihydro-2H-pyrimido[6,1-a]isoquinolin-3(4H)-yl}ethyl)urea]
primary endpoint of average FEV1 (AUC)0-12 h at Week 12 ([3]; Week 12): met
Average FEV1 (AUC)0-12 h post-dose at Week 12: Change from Baseline (CFB) Least Squares Mean ([3]; Week 12, n = 498, COPD patients): 48.2 mL
Average FEV1 (AUC)0-12 h post-dose at Week 12: Placebo-corrected CFB LS Mean Diff. ([3]; Week 12, vs placebo (n = 291)): 93.9 mL
improvement in lung function in subgroups of COPD patients ([3]; all subgroups): improvement in lung function with ensifentrine that was statistically significant
